The subject of data set [1] is male Sprague-Dawley rats. As to the kind of experiment: Open-field hypolocomotion / locomotor activity (LMA) assay. Format: in vivo. The settings on record: Rattus norvegicus, pre-treatment 60 or 120 minutes, beam breaks in 30 min, read-out: ED50, reduction of locomotor activity. As to the method:
The effect of VMAT2 inhibitors on dopamine depletion was measured using the locomotor activity (LMA) assay. Following a pre-treatment time of 60 or 120 minutes, male Sprague-Dawley rats (200-250 g) were placed in a clear cage surrounded by photocell detectors (San Diego Instruments). Rat locomotor activity was detected by breaks in the photocell beams and activity is defined as the number of beam breaks in 30 min. Data was analyzed by one-way analysis of variance (ANOVA; SigmaStat version 3.0.1, SPSS, Chicago, Ill.) followed by the Student Newman Keuls post-hoc test for significance.

For data set [2], the target named is human VMAT2 (Homo sapiens (Human), UniProt Q05940). Description: VMAT2 radioligand binding, 3H-dihydrotetrabenazine competition on human platelet homogenate. The settings on record: 10 nM 3H-dihydrotetrabenazine, human platelet homogenate, 25° C., 90 minutes; read-out: VMAT2 Ki. The essentials: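 Human platelet homogenate (30 μg membrane protein/well) in DPBS with 1 mM EDTA, pH 7.4; twelve test-compound concentrations competed against 10 nM ³H-dihydrotetrabenazine. Incubated 90 min at 25 °C, bound radioligand collected by filtration on PEI-pretreated glass-fibre filters and counted by scintillation; Ki derived.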
Chain of human VMAT2 (Q05940 whole entry): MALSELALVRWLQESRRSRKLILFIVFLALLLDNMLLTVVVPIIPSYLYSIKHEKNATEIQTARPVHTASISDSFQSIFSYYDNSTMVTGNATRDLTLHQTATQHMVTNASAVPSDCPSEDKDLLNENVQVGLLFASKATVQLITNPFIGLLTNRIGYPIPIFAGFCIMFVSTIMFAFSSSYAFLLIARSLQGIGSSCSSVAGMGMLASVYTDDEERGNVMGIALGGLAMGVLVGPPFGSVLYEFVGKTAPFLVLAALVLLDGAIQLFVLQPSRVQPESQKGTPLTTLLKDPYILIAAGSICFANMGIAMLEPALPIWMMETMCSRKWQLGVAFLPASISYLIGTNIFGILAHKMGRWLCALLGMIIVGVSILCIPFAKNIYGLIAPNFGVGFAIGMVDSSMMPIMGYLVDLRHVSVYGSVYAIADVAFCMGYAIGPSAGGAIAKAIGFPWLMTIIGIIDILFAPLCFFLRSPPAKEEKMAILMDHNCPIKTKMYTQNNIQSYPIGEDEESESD

A short description of data set [3]: Stability of compounds in human liver microsomes. Format: in vitro ADME. As to conditions: for CLint scaled at 0.5 μM / half-life at 0.5 μM: both sexes, pH 7.4; for CLint scaled at 0.5 μM: liver microsomes, calculated from HLM half-life, read-out: HLM Scaled Intrinsic Clearance; for CLint scaled at 0.5 μM / Predicted Max. Bioavailability (% F) / HLM Predicted Systemic Clearance: human; for half-life at 0.5 μM: 0.5 μM compound, 0.5 mg/mL human liver microsomes, 37° C., maxed at 420 minutes, read-out: HLM Elimination half-life (t1/2, min); for Predicted Max. Bioavailability (% F): predicted from HLM data; for HLM Predicted Systemic Clearance: scaled from HLM half-life (Obach method). In short, it runs like this: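 Compound at 0.5 μM incubated at 37 °C with pooled mixed-gender human liver microsomes (0.5 mg/mL protein) and an NADPH-generating system in pH 7.4 phosphate buffer, sampled 0–60 min. Parent depletion tracked by LC-MS/MS; t1/2 derived from the slope by non-linear regression, with predicted extraction ratio and maximum bioavailability also calculated.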

A value given as a limit tells only on which side of the number the result lay.

The term ED50 denotes the midpoint of the dose-response relation. As a reminder, the Ki is a dissociation constant, usually derived from enzyme kinetics or from competition with a known ligand.

As for `COc1cc2c(cc1OC1CC1)CCN1C[C@@H](CC(C)(C)C)[C@H](O)C[C@H]21` [Compound 4-27, (2R,3R,11bR)-9-cyclopropoxy-3-(2,2-dimethylpropyl)-10-methoxy-1H,2H,3H,4H,6H,7H,11bH-pyrido[2,1-a]isoquinolin-2-ol], in data set [1], the ED50 came to 0.14 mg/kg. Also, in data set [2], the Ki came to 1 nM. In addition, in data set [3], the CLint scaled at 0.5 μM was no more than 2.97 mL/min/kg, the half-life at 0.5 μM was no less than 420 min, the “Predicted Max. Bioavailability (% F)” value is given as no less than 87 % F and the “HLM Predicted Systemic Clearance” value is no more than 2.59 mL/min/kg.

Take `COc1cc2c(cc1OCC1(F)CC1)CCN1C[C@@H](CC(C)(C)C)[C@H](O)C[C@H]21` [Compound 4-31, (2R,3R,11bR)-3-(2,2-dimethylpropyl)-9-[(1-fluorocyclopropyl)methoxy]-10-methoxy-1H,2H,3H,4H,6H,7H,11bH-pyrido[2,1-a]isoquinolin-2-ol]: in data set [1], the ED50 is 0.31 mg/kg. Moreover, in data set [2], the Ki is 1.6 nM. Also, in data set [3], the CLint scaled at 0.5 μM is no more than 2.97 mL/min/kg, the half-life at 0.5 μM is no less than 420 min, the “Predicted Max. Bioavailability (% F)” value is reported as no less than 87 % F and the “HLM Predicted Systemic Clearance” value was no more than 2.59 mL/min/kg.

Consider `COc1cc2c(cc1OC[C@H](O)C(F)(F)F)CCN1C[C@@H](CC(C)(C)C)[C@H](O)C[C@H]21` [Compound 4-50, (2R,3R,11bR)-3-(2,2-dimethylpropyl)-10-methoxy-9-[(2S)-3,3,3-trifluoro-2-hydroxypropoxy]-1H,2H,3H,4H,6H,7H,11bH-pyrido[2,1-a]isoquinolin-2-ol], for which the ED50 in data set [1] came to 0.21 mg/kg. In addition, the inhibitory constant (Ki) in data set [2] is 1.4 nM. In data set [3], the CLint scaled at 0.5 μM was no more than 2.97 mL/min/kg, the half-life at 0.5 μM was no less than 420 min, the “Predicted Max. Bioavailability (% F)” value is given as no less than 87 % F and the “HLM Predicted Systemic Clearance” value was no more than 2.59 mL/min/kg.

As for `COc1cc2c(cc1OC[C@@H](C)O)CCN1C[C@@H](CC(C)(C)C)[C@H](O)C[C@H]21` [Compound 4-55, (2R,3R,11bR)-3-(2,2-dimethylpropyl)-9-[(2R)-2-hydroxypropoxy]-10-methoxy-1H,2H,3H,4H,6H,7H,11bH-pyrido[2,1-a]isoquinolin-2-ol], the ED50 in data set [1] was 0.29 mg/kg. Further, the Ki in data set [2] turned out to be 4.8 nM. Further, in data set [3], the CLint scaled at 0.5 μM is no more than 2.97 mL/min/kg, the half-life at 0.5 μM was no less than 420 min, the “Predicted Max. Bioavailability (% F)” value is given as no less than 87 % F and the “HLM Predicted Systemic Clearance” value was no more than 2.59 mL/min/kg.

Take `COc1cc2c(cc1OCCCCC(F)(F)F)CCN1C[C@@H](CC(C)(C)C)[C@H](O)C[C@H]21` [Compound 4-115, (2R,3R,11bR)-3-(2,2-dimethylpropyl)-10-methoxy-9-[(5,5,5-trifluoropentyl)oxy]-1H,2H,3H,4H,6H,7H,11bH-pyrido[2,1-a]isoquinolin-2-ol]: the Ki in data set [2] was determined as 6.1 nM. Moreover, in data set [3], the CLint scaled at 0.5 μM was 9.38 mL/min/kg, the half-life at 0.5 μM amounted to 133 min, the “Predicted Max. Bioavailability (% F)” value was 68 % F and the “HLM Predicted Systemic Clearance” value is 6.39 mL/min/kg.

As for `COc1cc2c(cc1OCc1cccc(C#N)c1)CCN1C[C@@H](CC(C)(C)C)[C@H](O)C[C@H]21` [Compound 4-116, 3-({[(2R,3R,11bR)-3-(2,2-dimethylpropyl)-2-hydroxy-10-methoxy-1H,2H,3H,4H,6H,7H,11bH-pyrido[2,1-a]isoquinolin-9-yl]oxy}methyl)benzonitrile], the Ki in data set [2] was 56 nM. In addition, in data set [3], the CLint scaled at 0.5 μM is 21.8 mL/min/kg, the half-life at 0.5 μM worked out at 57 min, the “Predicted Max. Bioavailability (% F)” value is on record as 48 % F and the “HLM Predicted Systemic Clearance” value is 10.44 mL/min/kg.

Turning to `COc1cc2c(cc1OCCc1ccc(F)cc1)CCN1C[C@@H](CC(C)(C)C)[C@H](O)C[C@H]21` [Compound 4-117, (2R,3R,11bR)-3-(2,2-dimethylpropyl)-9-[2-(4-fluorophenyl)ethoxy]-10-methoxy-1H,2H,3H,4H,6H,7H,11bH-pyrido[2,1-a]isoquinolin-2-ol], the Ki in data set [2] was determined as 2.2 nM. Besides, in data set [3], the CLint scaled at 0.5 μM was 112 mL/min/kg, the half-life at 0.5 μM is 11 min, the “Predicted Max. Bioavailability (% F)” value was 15 % F and the “HLM Predicted Systemic Clearance” value is 16.98 mL/min/kg.

Regarding `COc1cc2c(cc1OCC1(F)CC1)CCN1C[C@@H](CC(C)(C)C)[C@@H](O)C[C@H]21` [Compound 4-118, (2S,3R,11bR)-3-(2,2-dimethylpropyl)-9-[(1-fluorocyclopropyl)methoxy]-10-methoxy-1H,2H,3H,4H,6H,7H,11bH-pyrido[2,1-a]isoquinolin-2-ol], the inhibition constant Ki in data set [2] amounted to 13 nM. For the same compound, in data set [3], the CLint scaled at 0.5 μM is 6.6 mL/min/kg, the half-life at 0.5 μM was determined as 189 min, the “Predicted Max. Bioavailability (% F)” value is 75 % F and the “HLM Predicted Systemic Clearance” value was 4.96 mL/min/kg.

Take `COc1cc2c(cc1OCC1CCC1)CCN1C[C@@H](CC(C)(C)C)[C@H](O)C[C@H]21` [Compound 4-119, (2R,3R,11bR)-9-(cyclobutylmethoxy)-3-(2,2-dimethylpropyl)-10-methoxy-1H,2H,3H,4H,6H,7H,11bH-pyrido[2,1-a]isoquinolin-2-ol]: the Ki in data set [2] is 0.29 nM. For the same compound, in data set [3], the CLint scaled at 0.5 μM was 134 mL/min/kg, the half-life at 0.5 μM was determined as 9 min, the “Predicted Max. Bioavailability (% F)” value is 13.00 % F and the “HLM Predicted Systemic Clearance” value is 17.4 mL/min/kg.

Regarding `COc1cc2c(cc1OCCCC(F)(F)F)CCN1C[C@@H](CC(C)(C)C)[C@H](O)C[C@H]21` [Compound 4-120, (2R,3R,11bR)-3-(2,2-dimethylpropyl)-10-methoxy-9-(4,4,4-trifluorobutoxy)-1H,2H,3H,4H,6H,7H,11bH-pyrido[2,1-a]isoquinolin-2-ol], in data set [2], the Ki was determined as 1.5 nM. Moreover, in data set [3], the CLint scaled at 0.5 μM was no more than 2.97 mL/min/kg, the half-life at 0.5 μM was no less than 420 min, the “Predicted Max. Bioavailability (% F)” value is on record as no less than 87 % F and the “HLM Predicted Systemic Clearance” value was no more than 2.59 mL/min/kg.

On to `COc1cc2c(cc1OCC1CC1(F)F)CCN1C[C@@H](CC(C)(C)C)[C@H](O)C[C@H]21` (stereo partly drawn) [Compound 4-121, (2R,3R,11bR)-9-[(2,2-difluorocyclopropyl)methoxy]-3-(2,2-dimethylpropyl)-10-methoxy-1H,2H,3H,4H,6H,7H,11bH-pyrido[2,1-a]isoquinolin-2-ol], for which the inhibitory constant (Ki) in data set [2] stood at 0.82 nM. In data set [3], the CLint scaled at 0.5 μM is 4.46 mL/min/kg, the half-life at 0.5 μM was 280 min, the “Predicted Max. Bioavailability (% F)” value is on record as 82 % F and the “HLM Predicted Systemic Clearance” value was 3.64 mL/min/kg.

As to `COc1cc2c(cc1OC)[C@H]1C[C@@H](O)[C@H](CC(C)(C)C)CN1CC2` [Compound 5-1, (2R,3R,11bR)-3-(2,2-dimethylpropyl)-9,10-dimethoxy-1H,2H,3H,4H,6H,7H,11bH-pyrido[2,1-a]isoquinolin-2-ol], in data set [2], the Ki was found to be 6.6 nM. Besides, in data set [3], the CLint scaled at 0.5 μM is 15.6 mL/min/kg, the half-life at 0.5 μM was determined as 80 min, the “Predicted Max. Bioavailability (% F)” value was 56 % F and the “HLM Predicted Systemic Clearance” value was 8.77 mL/min/kg.

For `COc1cc2c(cc1OC)[C@H]1C[C@H](O)[C@H](CC(C)(C)C)CN1CC2` [Compound 5-2, (2S,3R,11bR)-3-(2,2-dimethylpropyl)-9,10-dimethoxy-1H,2H,3H,4H,6H,7H,11bH-pyrido[2,1-a]isoquinolin-2-ol], the Ki in data set [2] worked out at 50 nM. In data set [3], the CLint scaled at 0.5 μM was 32.6 mL/min/kg, the half-life at 0.5 μM is 38 min, the “Predicted Max. Bioavailability (% F)” value was 38 % F and the “HLM Predicted Systemic Clearance” value was 12.39 mL/min/kg.

The record behind these values is patent publication US11718618B2, “Substituted pyrido[2,1-a]isoquinolines as VMAT2 inhibitors” (priority 2021, dated 2023).
